The test system of the test is U937 cells. Description: Inhibitory activity against programmed necroptosis of U937 cells induced by TNF-α. It is filed as cell-based, human. The note with it: Homo sapiens, U-937, 48 h, 100 ng/ml human TNF-α and 25 μM Q-VD-Oph, 48 hours, CellTiter-Glo survival rate; read-out: U937 IC50. On the procedure: The U937 cell strain which was used in the following Testing Examples was derived from ATCC, No.: CRL-1593.2, batch No.: 63479999, culture medium: RPMI-1640+10% FBS.
The compound was dissolved in DMSO to prepare a 10 mM stock solution. The stock solution was diluted in 3.16 folds with DMSO to a series of gradient concentrations. Then, the resultant solution was diluted in 250 folds with a culture medium to prepare a working solution. The U937 cells were inoculated in a 384-well plate at 5000/well. The compound at respective concentration was added to each of the cells, and was mixed with the cells homogeneously. 100 ng/ml human TNF-α and 25 μM Q-VD-Oph were added simultaneously to induce programmed necroptosis of the cells. The final concentration of DMSO was 2%. The cells were placed in the incubator at 37° C. and 5% CO2 for further culture of 48 hours. Celltiter-Glo reagent was used for detection. After adequate pyrolysis reaction, the chemiluminescence readout value was recorded by a microplate reader. The survival rate was calculated from the detection results using the equation as follows: SR (%)=(RLU compound−RLU blank)/(RLU high control−RLU blank)×100%. The survival rate was plotted against the final concentration of respective compound using a 4-parameter fitting to calculate the inhibitory IC50 of the compound against programmed necroptosis of cells induced by TNF-a.

SMILES strings stand for the structures.

With `COc1ncc(-c2ccc3nc(N)sc3c2)cc1C(=O)NC(C)c1ccccc1OC(F)(F)F` (single isomer, unassigned) [Compound Z1, 5-(2-aminobenzothiazol-6-yl)-2-methoxy-N-(1-(2-(trifluoromethoxy)phenyl)ethyl)nicotinamide], the IC50 (usually the concentration needed to halve the response being measured) is 52 nM. For the compound `CC(NC(=O)c1cnc(Cl)c(-c2ccc3nc(N)sc3c2)c1)c1ccccc1OC(F)(F)F` (stereo not drawn) [Compound Z8, 5-(2-aminobenzo[d]thiazol-6-yl)-6-chloro-N-(1-(2-(trifluoromethoxy)phenyl)ethyl)nicotinamide], the IC50 came to 88 nM.

`Cc1ncc(-c2ccc3nc(N)sc3c2)cc1C(=O)NCc1c(F)cccc1OCC1CCCC1` [Compound Z12, 5-(2-aminobenzo[d]thiazol-6-yl)-N-(2-(cyclopentylmethoxy)-6-fluorobenzyl)-2-methylnicotinamide]: the IC50 was 10 nM.

As to `COc1ncc(C(=O)NCc2cc(F)ccc2OC2CCCC2)cc1-c1ccc2nc(N)sc2c1` [Compound Z13, 5-(2-aminobenzo[d]thiazol-6-yl)-N-(2-(cyclopentyloxy)-5-fluorobenzyl)-6-methoxynicotinamide], the IC50 came out at 17 nM.

As for `COc1ncc(-c2ccc3nc(N)sc3c2)cc1C(=O)NCc1cc(OC(F)(F)F)ccc1F` [Compound Z14, 5-(2-aminobenzo[d]thiazol-6-yl)-N-(2-fluoro-5-(trifluoromethoxy)benzyl)-2-methoxynicotinamide], the IC50 was 6 nM. Regarding `COc1ncc(-c2ccc3nc(N)sc3c2)cc1C(=O)NCCCc1ccccc1` [Compound Z16, 5-(2-aminobenzo[d]thiazol-6-yl)-2-methoxy-N-(3-phenylpropyl)nicotinamide], the IC50 was 26 nM.

For the compound `COc1ncc(-c2ccc3nc(N)sc3c2)cc1C(=O)N1CCCC(Cc2ccc(F)cc2)C1` (stereo not drawn) [Compound Z17, (5-(2-aminobenzo[d]thiazol-6-yl)-2-methoxypyridin-3-yl)(3-(4-fluorobenzyl)piperidin-1-yl)methanone], the IC50 came out at 4 nM. Then `COc1ncc(-c2ccc3nc(N)sc3c2)cc1C(=O)NCc1c(F)cccc1OC1CCCC1` [Compound Z18, 5-(2-aminobenzo[d]thiazol-6-yl)-N-(2-(cyclopentyloxy)-6-fluorobenzyl)-2-methoxynicotinamide], with 4 nM; and `COc1ncc(-c2ccc3nc(N)sc3c2)cc1C(=O)NCc1cc(F)ccc1OC1CCCC1` [Compound Z19, 5-(2-aminobenzo[d]thiazol-6-yl)-N-(2-(cyclopentyloxy)-5-fluorobenzyl)-2-methoxynicotinamide], with 7 nM; and `COc1ncc(-c2ccc3nc(N)sc3c2)cc1C(=O)NCc1ccccc1OCC1CC1` [Compound Z20, 5-(2-aminobenzo[d]thiazol-6-yl)-N-(2-(cyclopropylmethoxy)benzyl)-2-methoxynicotinamide], with 18 nM.

For the compound `Nc1nc2ccc(-c3cncc(C(=O)NCc4ccccc4OCC4CC4)c3)cc2s1` [Compound Z22, 5-(2-aminobenzo[d]thiazol-6-yl)-N-(2-(cyclopropylmethoxy)benzyl)nicotinamide], the half-inhibitory concentration (IC50) was determined as 62 nM. In the case of `CC(NC(=O)c1cc(-c2ccn3nc(N)nc3c2)cc2[nH]ccc12)c1ccccc1OC(F)(F)F` (stereo not drawn) [Compound Z24, 6-(2-amino-[1,2,4]triazolo[1,5-a]pyridin-7-yl)-N-(1-(2-(trifluoromethoxy)phenyl)ethyl)-1H-indole-4-carboxamide], the half-inhibitory concentration (IC50) was found to be 151 nM. On to `CC(NC(=O)c1cc(-c2ccn3nc(N)nc3c2)c2cc[nH]c2c1)c1ccccc1OC(F)(F)F` (stereo not drawn) [Compound Z25, 4-(2-amino-[1,2,4]triazolo[1,5-a]pyridin-7-yl)-N-(1-(2-(trifluoromethoxy)phenyl)ethyl)-1H-indole-6-carboxamide], for which the IC50 came out at 140 nM.

In the case of `COc1nc(C)c(-c2ccc3nc(N)sc3c2)cc1C(=O)NC(C)c1ccccc1OC(F)(F)F` (stereo not drawn) [Compound Z37, 5-(2-aminobenzo[d]thiazol-6-yl)-2-methoxy-6-methyl-N-(1-(2-(trifluoromethoxy)phenyl)ethyl)nicotinamide], the IC50 is 45 nM. Take `COc1nc(C)c(-c2ccc3nc(N)sc3c2)cc1C(=O)NCc1cc(F)cc(F)c1OCC1CC1` [Compound Z38, 5-(2-aminobenzo[d]thiazol-6-yl)-N-(2-(cyclopropylmethoxy)-3,5-difluorobenzyl)-2-methoxy-6-methylnicotinamide]: the concentration for half-maximal inhibition (IC50) came to 14 nM.

Consider `COc1nc(C)c(-c2ccc3nc(N)sc3c2)cc1C(=O)NCc1ccccc1OC1CCOC1` (stereo not drawn) [Compound Z40, 5-(2-aminobenzo[d]thiazol-6-yl)-2-methoxy-6-methyl-N-(2-((tetrahydrofuran-3-yl)oxy)benzyl)nicotinamide], for which the half-maximal inhibitory concentration (IC50) was 68 nM. Consider `COc1nc(C)c(-c2ccc3nc(N)sc3c2)cc1C(=O)NCc1cccnc1OC1CCCC1` [Compound Z41, 5-(2-aminobenzo[d]thiazol-6-yl)-N-((2-(cyclopentyloxy)pyridin-3-yl)methyl)-2-methoxy-6-methylnicotinamide], for which the IC50 stood at 14 nM.

Regarding `COc1nc(C)c(-c2ccc3nc(N)sc3c2)cc1C(=O)NCc1ccccc1OC(C)C` [Compound Z42, 5-(2-aminobenzo[d]thiazol-6-yl)-N-(2-isopropoxybenzyl)-2-methoxy-6-methylnicotinamide], the IC50 is 43 nM.

`Cc1ncc(-c2ccc3nc(N)sc3c2)cc1C(=O)NC(C)c1cc(OC(F)(F)F)ccc1F` (stereo not drawn) [Compound Z43, 5-(2-aminobenzo[d]thiazol-6-yl)-N-(1-(2-fluoro-5-(trifluoromethoxy)phenyl)ethyl)-2-methylnicotinamide]: the IC50 is 3 nM. Then `CC(NC(=O)c1cc(-c2ccc3nc(N)sc3c2)cnc1N)c1ccccc1OC(F)(F)F` (stereo not drawn) [Compound Z46, 2-amino-5-(2-aminobenzo[d]thiazol-6-yl)-N-(1-(2-(trifluoromethoxy)phenyl)ethyl)nicotinamide], with 76 nM. As for `COc1ncc(-c2ccc3nc(N)sc3c2)cc1C(=O)NC(C)c1c(F)cccc1OC(F)(F)F` (stereo not drawn) [Compound Z48, 5-(2-aminobenzo[d]thiazol-6-yl)-N-(1-(2-fluoro-6-(trifluoromethoxy)phenyl)ethyl)-2-methoxynicotinamide], the 50% inhibitory concentration (IC50) is 88 nM. As for `COc1ncc(-c2ccc3nc(N)sc3c2)cc1C(=O)NCc1ccccc1OC(C)C` [Compound Z50, 5-(2-aminobenzo[d]thiazol-6-yl)-N-(2-isopropoxybenzyl)-2-methoxynicotinamide], the half-inhibitory concentration (IC50) was determined as 49 nM. Take `COc1ncc(-c2ccc3nc(N)sc3c2)cc1C(=O)NCc1cccnc1OC1CCCC1` [Compound Z52, 5-(2-aminobenzo[d]thiazol-6-yl)-N-((2-(cyclopentyloxy)pyridin-3-yl)methyl)-2-methoxynicotinamide]: the IC50 is 19 nM. As to `COc1ncc(-c2ccc3nc(N)sc3c2)cc1C(=O)NCc1ccccc1OC1CCOC1` (stereo not drawn) [Compound Z53, 5-(2-aminobenzo[d]thiazol-6-yl)-2-methoxy-N-(2-((tetrahydrofuran-3-yl)oxy)benzyl)nicotinamide], the IC50 was determined as 42 nM. As for `Cn1ncc2c(-c3ccn4nc(N)nc4c3)cc(C(=O)NCc3cccnc3OC3CCCC3)cc21` [Compound Z57, 4-(2-amino-[1,2,4]triazolo[1,5-a]pyridin-7-yl)-N-((2-(cyclopentyloxy)pyridin-3-yl)methyl)-1-methyl-1H-indazole-6-carboxamide], the IC50 came to 11 nM.

Turning to `Cn1ncc2c(-c3ccn4nc(N)nc4c3)cc(C(=O)NCc3cc(F)ccc3OCC3CC3)cc21` [Compound Z59, 4-(2-amino-[1,2,4]triazolo[1,5-a]pyridin-7-yl)-N-(2-(cyclopropylmethoxy)-5-fluorobenzyl)-1-methyl-1H-indazole-6-carboxamide], the half-inhibitory concentration (IC50) was 24 nM. As for `CC(c1ccc(F)cc1)n1cc(NC(=O)c2cc(-c3ccn4nc(N)nc4c3)c3cnn(C)c3c2)cn1` (stereo not drawn) [Compound Z60, 4-(2-amino-[1,2,4]triazolo[1,5-a]pyridin-7-yl)-N-(1-(1-(4-fluorophenyl)ethyl)-1H-pyrazol-4-yl)-1-methyl-1H-indazole-6-carboxamide], the IC50 stood at 213 nM. Then `Cn1ncc2c(-c3ccn4nc(N)nc4c3)cc(C(=O)NCc3cc(F)ccc3OC3CCOCC3)cc21` [Compound Z61, 4-(2-amino-[1,2,4]triazolo[1,5-a]pyridin-7-yl)-N-(5-fluoro-2-((tetrahydro-2H-pyran-4-yl)oxy)benzyl)-1-methyl-1H-indazole-6-carboxamide], with 2 nM. Regarding `Cn1ncc2c(-c3ccn4nc(N)nc4c3)cc(C(=O)NCc3cc(F)ccc3OC3CCOC3)cc21` (stereo not drawn) [Compound Z62, 4-(2-amino-[1,2,4]triazolo[1,5-a]pyridin-7-yl)-N-(5-fluoro-2-((tetrahydrofuran-3-yl)oxy)benzyl)-1-methyl-1H-indazole-6-carboxamide], the 50% inhibitory concentration (IC50) was 30 nM. For `COc1ncc(-c2ccc3nc(N)sc3c2)cc1C(=O)Nc1cnn(C(C)c2ccc(F)cc2)c1` (stereo not drawn) [Compound Z63, 5-(2-aminobenzo[d]thiazol-6-yl)-N-(1-(1-(4-fluorophenyl)ethyl)-1H-pyrazol-4-yl)-2-methoxynicotinamide], the IC50 was found to be 7 nM.

For the origin of these results see US20220177462A1, “SUBSTITUTED HETEROCYCLIC AMIDE COMPOUND AND PREPARATION METHOD THEREFOR AND PHARMACEUTICAL USE THEREOF” (GENFLEET THERAPEUTICS (SHANGHAI) INC., priority 2019, published 2022).
